These results are taken from paper PMC5054527, “Mechanism of high affinity inhibition of the human urate transporter URAT1” (Scientific Reports, 2016).

Holding throughout (test): URAT1 uric acid transport activity assay
Format in all cases: cell-based

The target in assay [1] is T1, r-F351C rURAT1 point mutant (Rattus norvegicus, UniProt Q3ZAV1, F351C).
T1 sequence (Q3ZAV1 1-553 F351C): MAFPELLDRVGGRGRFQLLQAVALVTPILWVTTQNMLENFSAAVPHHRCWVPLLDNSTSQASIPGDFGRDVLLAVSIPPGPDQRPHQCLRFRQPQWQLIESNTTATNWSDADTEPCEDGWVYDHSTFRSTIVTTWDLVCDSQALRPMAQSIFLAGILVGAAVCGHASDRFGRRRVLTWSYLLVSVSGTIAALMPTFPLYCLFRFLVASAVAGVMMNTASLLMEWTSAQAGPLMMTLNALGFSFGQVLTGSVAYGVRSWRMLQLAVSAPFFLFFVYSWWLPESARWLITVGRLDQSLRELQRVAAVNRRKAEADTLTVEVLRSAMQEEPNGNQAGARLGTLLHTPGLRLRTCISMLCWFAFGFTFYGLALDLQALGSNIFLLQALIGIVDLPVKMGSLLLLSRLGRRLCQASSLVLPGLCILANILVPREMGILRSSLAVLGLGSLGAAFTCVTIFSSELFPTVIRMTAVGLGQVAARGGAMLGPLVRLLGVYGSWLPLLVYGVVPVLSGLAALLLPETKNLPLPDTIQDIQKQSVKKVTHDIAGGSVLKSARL
The source says:
(§1) hURAT1 (GenBank BC053348.1) and rURAT1 (NCBI NM_001034943.1) genes were purchased from Origene Technologies, Inc. and subcloned into pCMV6/neo using NotI, creating pCMV6/neo-hURAT1 and pCMV6/neo-rURAT1. Mutants were produced by polymerase chain reaction (PCR) or site-directed mutagenesis using the QuikChange Lightning Multi Site-Directed Mutagenesis Kit (Agilent Technologies). […] Detailed methods are provided in Supplementary Methods, and primers are listed in Supplementary Table 1. […] Residues in rURAT1 and hOAT1 that correspond to the residues in hURAT1 were identified from aligned protein sequences (Supplementary Fig. 1)[50].
(§2) DNA (10 μg) was mixed with 30 μl of DreamFect Gold (Boca Scientific) in 2 ml OptiMem (Life Technologies). After 20 minutes, 18 ml of media containing 2 × 10^7 cells in suspension was added and mixed, and 200 μl per well were plated onto white clear-bottomed poly-D-lysine coated 96-well plates (BD Biosciences). The cells were assayed the following day.
(§3) Compounds were serially diluted into assay buffer and added to the cells for 5 minutes prior to addition of radiolabelled uric acid substrate. URAT1-expressing cells were incubated with 100 μM ^14C-uric acid for 10 minutes. […] Each treatment was measured in triplicate.
(§4) Unlabelled uric acid was prepared at a 20 mM stock just prior to use in a solution containing 20 mM dibasic potassium phosphate and 20 mM potassium hydroxide.
(§5) Nonlinear regression analyses using GraphPad Prism software were used to calculate the potency of URAT1 inhibitors (IC50 values) from log (inhibitor) versus response - variable slope (four parameters) equations. Statistical significance was assessed using Student’s unpaired t-tests.

The target in assay [2] is T2, r-N35S rURAT1 point mutant (Rattus norvegicus, UniProt Q3ZAV1, N35S).
T2 construct: expressed in transfected cells; host or cells: HEK-293T
T2 sequence (Q3ZAV1 1-553 N35S): T1 sequence (Q3ZAV1 1-553 F351C) with N35S, C351F
The note with it: for fold increased affinity of r-N35S compared to rURAT1: from IC50 values.
Text: as §1, §2, §3, §4, §5

Assay [3] addresses T3, r-V22M rURAT1 point mutant (Rattus norvegicus, UniProt Q3ZAV1, V22M).
T3 sequence (Q3ZAV1 1-553 V22M): T1 sequence (Q3ZAV1 1-553 F351C) with V22M, C351F
Text: as §1, §2, §3, §4, §5

[4] abbreviates: r-N35S, MES pH 5.5, 100 μM 14C-uric acid, read-out: IC50 (uric acid transport).

Where a chain is given by its changes, count along the chain named. Read-outs that look alike come from different tables or passages of the source.

In general, IC50 refers to the concentration that gives 50% inhibition.

As for `CCc1oc2ccccc2c1C(=O)c1cc(Br)c(O)c(Br)c1` [benzbromarone], the IC50 in assay [1] was 24 ± 3.3 µM; in assay [2], 17 ± 2.1 µM; in assay [3], 20 ± 2.7 µM.
As for `O=C(O)CSc1nnc(Br)n1-c1ccc(C2CC2)c2ccccc12` [lesinurad, 2-((5-bromo-4-(4-cyclopropylnaphthalen-1-yl)-4H-1,2,4-triazol-3-yl)thio)acetic acid], the IC50 is 82 ± 1.7 µM in assay [1] (r-F351C, MES pH 5.5, 100 μM 14C-uric acid, read-out: IC50 (uric acid transport)); 57 ± 6.3 µM in assay [2] (setting [4]); 74 ± 8.9 µM in assay [3] (r-V22M, MES pH 5.5, 100 μM 14C-uric acid, read-out: IC50 (uric acid transport)).
For `O=C1C(CC[S+]([O-])c2ccccc2)C(=O)N(c2ccccc2)N1c1ccccc1` (stereo not drawn) [sulfinpyrazone], the IC50 was 924 ± 276 µM in assay [1] (r-F351C, HEPES pH 7.3, 100 μM 14C-uric acid, read-out: IC50 (uric acid transport)); 189 ± 32 µM in assay [2] (r-N35S, HEPES pH 7.3, 100 μM 14C-uric acid, read-out: IC50 (uric acid transport)); 762 ± 177 µM in assay [3] (r-V22M, HEPES pH 7.3, 100 μM 14C-uric acid, read-out: IC50 (uric acid transport)). Further, the “fold increased affinity of r-N35S compared to rURAT1” value in assay [2] is 3.6 fold.
Take `O=c1[nH]c(=O)c2[nH]c(=O)[nH]c2[nH]1` [uric acid]: in assay [2], the “fold increased affinity of r-N35S compared to rURAT1” value is on record as “no phenotype”. Moreover, the IC50 in assay [2] (setting [4]) amounted to 2660 µM.
